In brackets after ≈: the same amount, converted by molar mass.
Assays:
[1] = Heat-up/cool-down crystallisation screen of sorbate salt (Example 10, Experiments 5, 8); type: physicochemical; details: Experiment 5; for Observations (t = 1 @ T = 20° C.): Tabernanthalog sorbate salt (Form A) crystallised from binary solvents, solvent A 3.0 vol plus solvent B, one pair per sample; for XRPD (oven dried @ 40° C., 20 h) / XRPD (centrifuged, wet): heat-up/cool-down crystallisation from binary solvents; for XRPD (centrifuged, wet): wet pellet
Method: The relevant solvent (0.225 ml, 3.0 vol) was added to the appropriate vial and the suspensions were stirred and warmed to temperature. If dissolution was not observed, further solvent was added until the solute dissolved, or aliquots of a secondary co-solvent were added to complete dissolution. Once dissolved, the solutions were left to cool down and stand undisturbed under sub-ambient conditions for several days. After crystallisation was judged complete, the products were isolated by centrifugation and the pellets were dried at 40° C. under reduced pressure. Products from the crystallisation (wet and dry) were initially analysed by XRPD (9-minute method), further analyses of certain products were performed by ^1H NMR, DSC and TGA, if the diffraction pattern indicated differences.

[2] = Solubility determinations in SIF buffers FaSSIF, FeSSIF, FaSSGF (Example 8, Experiment 5); details: for Tabernanthalog RRT = 1.00 (trended HPLC data, chemical purity): tabernanthalog sorbate salt, 37° C.
Method: The temperature was maintained at 37° C. for 24 h. […] The suspensions were sampled at the relevant time points and centrifuged. The centrifuged pellets, obtained at the time points were analysed by XRPD as a wet pellet and dried, for evidence of form change.
The temperature was maintained at 37° C. for 24 h.
The suspension was sampled at the relevant time points and centrifuged. […] The centrifuged pellets, obtained at the time points were analyzed by XRPD as a wet pellet and dried, for evidence of form change.

[3] = 37 °C, pH 1.6, fassgf or other biorelevant, thermodynamic from solid
[4] = 37 °C, pH 5, fessif, thermodynamic from solid
[5] = 37 °C, pH 6.5, fassif, thermodynamic from solid

Structure (SMILES)	Observations (t = 1 @ T = 20° C.) [1]	XRPD (oven dried @ 40° C., 20 h) [1]	XRPD (centrifuged, wet) [1]	also measured
CC=CC=CC(=O)O.COc1ccc2c3c([nH]c2c1)CCN(C)CC3 [Experiment 5-Sample A]	Partial	Form A	Form A	–
CC=CC=CC(=O)O.COc1ccc2c3c([nH]c2c1)CCN(C)CC3 [Experiment 5-Sample B]	Solid	Form A	Form A	–
C/C=C/C=C/C(=O)O.COc1ccc2c3c([nH]c2c1)CCN(C)CC3 [Experiment 5-Sample C]	Solid	Form A	Form A	–
C/C=C/C=C/C(=O)O.COc1ccc2c3c([nH]c2c1)CCN(C)CC3 [Experiment 5-Sample D]	Liquid	Form A	Form A	–
C/C=C/C=C/C(=O)O.COc1ccc2c3c([nH]c2c1)CCN(C)CC3 [Experiment 5-Sample E]	Partial	Form A	Form A	–
C/C=C/C=C/C(=O)O.COc1ccc2c3c([nH]c2c1)CCN(C)CC3 [Experiment 5-Sample F]	Partial	Form A	Form A	–
C/C=C/C=C/C(=O)O.COc1ccc2c3c([nH]c2c1)CCN(C)CC3 [Experiment 5-Sample G]	Partial	Form A	Pattern #6	–
CC=CC=CC(=O)O.COc1ccc2c3c([nH]c2c1)CCN(C)CC3 [Experiment 5-Sample H]	Partial	Form A	Form A	–
C/C=C/C=C/C(=O)O.COc1ccc2c3c([nH]c2c1)CCN(C)CC3 [Experiment 5-Sample I]	Liquid	Form A	Form A	–
C/C=C/C=C/C(=O)O.COc1ccc2c3c([nH]c2c1)CCN(C)CC3 [Experiment 5-Sample J]	Partial	Form A	Form A	–
CC=CC=CC(=O)O.COc1ccc2c3c([nH]c2c1)CCN(C)CC3 [Experiment 5-Sample K]	Partial	Form A	Form A	–
C/C=C/C=C/C(=O)O.COc1ccc2c3c([nH]c2c1)CCN(C)CC3 [Experiment 5-Sample L]	Partial	Form A	Form A	–
C/C=C/C=C/C(=O)O.COc1ccc2c3c([nH]c2c1)CCN(C)CC3 [Experiment 5-Sample M]	Liquid	Form A	Form A	–
C/C=C/C=C/C(=O)O.COc1ccc2c3c([nH]c2c1)CCN(C)CC3 [Sample 5-L1]	–	–	–	Tabernanthalog RRT = 1.00 (trended HPLC data, chemical purity) ([2]; t = 1 h in FaSSGF): 99.52
C/C=C/C=C/C(=O)O.COc1ccc2c3c([nH]c2c1)CCN(C)CC3 [Sample 5-L4]	–	–	–	Tabernanthalog RRT = 1.00 (trended HPLC data, chemical purity) ([2]; t = 3 h in FaSSGF): 99.36
C/C=C/C=C/C(=O)O.COc1ccc2c3c([nH]c2c1)CCN(C)CC3 [Sample 5-L7]	–	–	–	Tabernanthalog RRT = 1.00 (trended HPLC data, chemical purity) ([2]; t = 6 h in FaSSGF): 99.30
C/C=C/C=C/C(=O)O.COc1ccc2c3c([nH]c2c1)CCN(C)CC3 [Sample 5-L10]	–	–	–	Tabernanthalog RRT = 1.00 (trended HPLC data, chemical purity) ([2]; t = 24 h in FaSSGF): 99.33
COc1ccc2c3c([nH]c2c1)CCN(C)CC3 [Tabernanthalog• Sorbate]	–	–	–	solubility at 1 h [2, 3]: 21.9 mg/mL (≈ 95 mM); solubility at 3 h [2, 3]: 29.8 mg/mL (≈ 130 mM); solubility at 6 h [2, 3]: 30.3 mg/mL (≈ 131 mM); solubility at 24 h [2, 3]: 29.9 mg/mL (≈ 130 mM); solubility at 1 h [2, 4]: 27.2 mg/mL (≈ 118 mM); solubility at 3 h [2, 4]: > 30 mg/mL; solubility at 6 h [2, 4]: > 30 mg/mL; solubility at 1 h [2, 5]: > 30 mg/mL; solubility at 3 h [2, 5]: > 30 mg/mL; solubility at 6 h [2, 5]: > 30 mg/mL; XRPD (dried) ([2]; FaSSGF (pH 1.6), t = 1 h @37° C., suspended solid, dried pellet): Sorbic acid; XRPD (wet) ([2]; FaSSGF (pH 1.6), t = 1 h @37° C., suspended solid, wet pellet): Sorbic acid

Source: patent US20230257385A1, “SALT AND SOLID FORMS OF TABERNANTHALOG” (priority 2021, published 2023)
